How the values were obtained:
[1] = Differential thermal analysis (DTA), violence of decomposition; type: physicochemical; conditions: characterises the violence of decomposition
[2] = Combustion number (Brennziffer, BZ), safety characteristic; type: physicochemical; conditions: solid isolated diazonium salt form
[3] = Onset of exothermic decomposition (EZ); type: physicochemical; conditions: for Exotherme Zer-setzung (EZ): temperature at which exothermic decomposition begins
[4] = Impact sensitivity; type: physicochemical
[5] = Dust explosion class (ST), safety characteristic; type: physicochemical; conditions: solid isolated diazonium salt form
[6] = Explosion hazard; type: physicochemical
[7] = Solubility in water; type: physicochemical; conditions: 20 °C
[8] = species and route not given; cited from earlier work

Compound | Differential-thermoanalyse (DTA) [1] | Brenn-ziffer (BZ) [2] | exotherme Zersetzung, höher als bei dem entsprechenden Zinkchlorid-Doppelsalz ([3]; difference to the corresponding zinc chloride double salt) | Exotherme Zer-setzung (EZ) [3] | schlagemp-findlich [4] | Staubexplo-sionsklasse (ST) [5] | explosions-gefährlich [6] | Löslichkeit in Wasser [7] | solubility ([7]; read-out: Löslichkeit in Wasser) | LD₅₀-Wert (LD - Letale Dosis) [8]
4-N,N-Dimethylaminobenzoldiazonium-sulfosalicylat [Sulfosalicylat R1=R2=CH3 R3 = H] | -490 kJ/kg | 3 | 40 °C | 140 °C | nein | 1 | nein | 10,4 g/l | – | –
CN(C)c1ccc([N+]#N)cc1 [4-N,N-Dimethylaminobenzoldiazonium-sulfoisophthalat, reference compound] | – | – | – | – | – | – | – | – | 3800 µg/mL | –
Cc1cc([N+]#N)ccc1N1CCCC1 [Sulfosalicylat R1,R2=(CH2)4 R3 = CH3, 3-Methyl-4-N-pyrrolidinobenzoldiazonium-sulfosalicylat] | -400 kJ/kg | 3 | – | 120 °C | nein | 1 | nein | – | – | –
4-N,N-Dimethylaminobenzoldiazoniumchlorzinkat [ZnCl2 stabilisiert R1=R2=CH3 R3 = H, reference compound] | -720 kJ/kg | 3 | – | 100 °C | nein | 0 | nein | – | – | –
O=C(O)c1cc(S(=O)(=O)O)ccc1O [Sulfosalicylsäure] | – | – | – | – | – | – | – | – | – | 2450 mg/kg

— patent EP0333004A2, “Light sensitive diazonium compounds, process for their preparation and their use” (priority 1988, dated 1989)
